Experimental data from paper PMC3900635, “Transport Rankings of Non-Steroidal Antiinflammatory Drugs across Blood-Brain Barrier In Vitro Models” (PLoS ONE, 2014).
Read-outs that look alike come from different tables or passages of the source.

How the values were obtained:
[1] = Single transport studies across ECV304 layers (Transwell)
Protocol: (§1) All solutions were prepared under sterile conditions.
(§2) For quantification of NSAIDs a reverse-phase high-performance liquid chromatography (RP-HPLC) system from Shimadzu was used (DGV-20A5/prominence Degasser, SIL – 20AC/prominence Auto Sampler, CTO – 20AC/prominence Column Oven, SPD – 20A/prominence UV detector, CMB – 20A/prominence Communications Bus Module). […] Before analysis proteins of samples were precipitated with ice-cold methanol or acetonitril depending on mobile phase composition and supernatants were analyzed. Data aquisition and analysis were performed by LC-Solution software (Shimadzu Handelsgesellschaft, Austria). Substances were analysed in triplicates with a injection volume of 20–50 µL.Varying mixtures of methanol, acetonitrile, and 10 mM potassium buffer (pH = 2.5 for all analysis except pH = 3.5 for single studies with celecoxib) were used as mobile phase.
(§3) Permeability coefficients were calculated following the clearance principle as described recently. Results of blank value experiments were included into permeability coefficient calculation by using reciprocal correlation shown in equation (1):
(§4) 1/PEcell = 1/PEall – 1/PEblank (1)
(§5) PEblank refers to the permeability coefficient without cell layer, PEall represents the permeability coefficient through membrane insert and the cell layer and PEcell is the permeability coefficient only through the cell layer.

ECV304 cell layers = assay: in vitro
Protocol: as §1, §2, §3, §4, §5

PBMEC/C1-2 cell layers = assay: in vitro; settings: for PEcell: PBMEC/C1-2 group study
Protocol: as §1, §2, §3, §4, §5

[2] = Group transport studies across ECV304 layers (Transwell); settings: human, PEcell
Protocol: as §1, §2, §3, §4, §5

[3] = assay type: in vitro ADME, calf; settings: group composition, ultrafiltration
Protocol: […]. After incubation at 37°C for 40 minutes, 2 mL of the solutions were centrifuged across prewashed (2 mL PBS, 10 minutes, 2500 g) Centrisart ultra-filters (molecular cut-off 10 kDa, Sartorius) at 2500 g for 5 (PBS and 0% serum), 10 (7.5% serum) or 15 (50% and 100% serum) minutes to obtain at least one third to one half of the totally applied volume. […]. Carboxyfluorescein was measured by the microplate reader method as described above. Unbound substance concentrations in the filtrates were related to stock solutions to determine the serum binding (100%-unbound fraction [%]). Blank experiments (PBS, 0% serum experiments) were included in the calculation of serum binding values to consider systematic procedure errors and binding of the substances to the ultrafiltration membrane. Experiments under each condition were repeated for three times.

[4] = test system: primary rat brain microvascular endothelial cells (RBMEC); assay: in vitro
Protocol: as §1, §2, §3, §4, §5

[5] = pig, PEcell, PBMEC/C1-2 group study, all substances (6 NSAIDs, diazepam, CF), C6 medium
[6] = pig, PEcell, PBMEC/C1-2 group study, without Meloxicam
[7] = pig, with verapamil (concentration not stated), PEcell, PBMEC/C1-2 group study, with Verapamil, without Meloxicam
[8] = ECV304 group study, all substances (6 NSAIDs, diazepam, CF), C6 medium
[9] = ECV304 group study, without Meloxicam
[10] = with probenecid (concentration not stated), ECV304 group study, with Probenecid, without Meloxicam
[11] = with verapamil (concentration not stated), ECV304 group study, with Verapamil, without Meloxicam

For `Cc1ccc(-c2cc(C(F)(F)F)nn2-c2ccc(S(N)(=O)=O)cc2)cc1` [Celecoxib, celecoxib], the Papp at 100 µM ([1]; human) was 7.62 ×10⁻⁶ cm/s, the Papp at 100 µM ([1]; pig) was 22.4 ×10⁻⁶ cm/s and the Papp at 100 µM [1, 5] was 22.1 ×10⁻⁶ cm/s. It also gave a Papp at 100 µM [1, 6] of 25.8 ×10⁻⁶ cm/s, a Papp at 100 µM ([1]; pig, with probenecid (concentration not stated), PEcell, PBMEC/C1-2 group study, with Probenecid, without Meloxicam) of 27.8 ×10⁻⁶ cm/s and a Papp at 100 µM [1, 7] of 35.1 ×10⁻⁶ cm/s. The PSblank (ECV304 cell layers; 100 µM) was 5.10 ± 0.06 µL/min, the PEall (ECV304 cell layers; ECV304, Celecoxib study, insert and cell layer) was 3.31±0.41 µm/min and the PSall (ECV304 cell layers; human, 100 µM) was 1.39 ± 0.17 µL/min. The PScell (ECV304 cell layers; human, 100 µM) was 1.91 ± 0.32 µL/min, the PSblank (PBMEC/C1-2 cell layers; 100 µM) was 6.07 ± 0.45 µL/min and the PEall (PBMEC/C1-2 cell layers; PBMEC/C1-2, Celecoxib study, insert and cell layer) was 6.95±0.45 µm/min. For the same compound, the PSall (PBMEC/C1-2 cell layers; pig, 100 µM) was 2.92 ± 0.19 µL/min, the PScell (PBMEC/C1-2 cell layers; pig, 100 µM) was 5.62 ± 0.71 µL/min and the Papp at 100 µM [2, 8] was 11 ×10⁻⁶ cm/s. For the same compound, the Papp at 100 µM [2, 9] was 23.3 ×10⁻⁶ cm/s, the Papp at 100 µM [2, 10] was 15.5 ×10⁻⁶ cm/s and the Papp at 100 µM [2, 11] was 10.3 ×10⁻⁶ cm/s.

Work on `CN1C(=O)CN=C(c2ccccc2)c2cc(Cl)ccc21` [Diazepam, diazepam] yielded a PEall (PBMEC/C1-2 cell layers; pig) of 11.10±1.33 µm/min, a Serum binding ([3]; Serum concentration 50%) of 19.52±0.13% and a Serum binding ([3]; Serum concentration 100%) of 22.52±0.06%. It also gave a Serum binding ([3]; Serum concentration […] (C6 medium)) of 8.17±0.49%.

`O=C(O)Cc1ccccc1Nc1c(Cl)cccc1Cl` [Diclofenac, diclofenac] showed a Papp at 100 µM ([1]; human) of 9.45 ×10⁻⁶ cm/s, a Papp at 100 µM ([1]; pig) of 17.7 ×10⁻⁶ cm/s and a Papp at 100 µM ([1]; rat) of 44.6 ×10⁻⁶ cm/s. For the same compound, the PSblank ([4]; 100 µM) was 1.65 ± 0.13 µL/min, the PEall ([4]; rat, 100 µM) was 10.84±0.51 µm/min and the PSall ([4]; rat, 100 µM) was 0.96 ± 0.05 µL/min. The PScell ([4]; rat, 100 µM) was 2.39 ± 0.27 µL/min, the PSblank (ECV304 cell layers; 100 µM) was 4.08 ± 0.41 µL/min and the PEall (ECV304 cell layers; human, 100 µM) was 3.58±0.18 µm/min. The PSall (ECV304 cell layers; human, 100 µM) was 1.50 ± 0.08 µL/min, the PScell (ECV304 cell layers; human, 100 µM) was 2.38 ± 0.19 µL/min and the PSblank (PBMEC/C1-2 cell layers; 100 µM) was 5.83 ± 0.26 µL/min. The PEall (PBMEC/C1-2 cell layers; pig, 100 µM) was 6.00±0.38 µm/min, the PSall (PBMEC/C1-2 cell layers; pig, 100 µM) was 2.52 ± 0.16 µL/min and the PScell (PBMEC/C1-2 cell layers; pig, 100 µM) was 4.44 ± 0.48 µL/min.

`CC(C)Cc1ccc(C(C)C(=O)O)cc1` (centres unmarked) [Ibuprofen, ibuprofen] gave a Papp at 100 µM ([1]; pig) of 28.2 ×10⁻⁶ cm/s, a Papp at 100 µM ([1]; rat) of 53.3 ×10⁻⁶ cm/s and a PSblank [4] of 1.71 ± 0.15 µL/min. For the same compound, the PSall ([4]; rat) was 1.07 ± 0.06 µL/min, the PScell ([4]; rat) was 2.86 ± 0.39 µL/min and the PEall (ECV304 cell layers; human, 100 µM) was 4.82±0.05 µm/min. For the same compound, the PSblank (PBMEC/C1-2 cell layers) was 6.72 ± 0.12 µL/min, the PScell (PBMEC/C1-2 cell layers; PBMEC/C1-2, Ibuprofen study, cell layer only) was 7.10 ± 0.65 µL/min and the PSall (PBMEC/C1-2 cell layers; PBMEC/C1-2, Ibuprofen study, insert and cell layer) was 3.45 ± 0.15 µL/min. For the same compound, the Papp at 100 µM [2] was 16.3 ×10⁻⁶ cm/s.

Compound `CN1C(C(=O)Nc2ccccn2)=C(O)c2ccccc2S1(=O)=O` [Piroxicam, piroxicam] has a Papp at 100 µM ([1]; human) of 20.4 ×10⁻⁶ cm/s, a Papp at 100 µM ([1]; pig) of 39.7 ×10⁻⁶ cm/s and a Papp at 100 µM [1, 5] of 70 ×10⁻⁶ cm/s. For the same compound, the Papp at 100 µM ([1]; pig, PEcell, PBMEC/C1-2 group study, glioma conditioned medium, without celecoxib) was 49.8 ×10⁻⁶ cm/s, the Papp at 100 µM ([1]; pig, PEcell, PBMEC/C1-2 group study, without Celecoxib) was 42.1 ×10⁻⁶ cm/s and the Papp at 100 µM [1, 6] was 64.2 ×10⁻⁶ cm/s. For the same compound, the Papp at 100 µM [1, 7] was 66.8 ×10⁻⁶ cm/s, the Papp at 100 µM ([1]; rat) was 52.3 ×10⁻⁶ cm/s and the PSblank ([4]; 100 µM) was 1.94 ± 0.12 µL/min. The PEall ([4]; RBMEC group study, insert and cell layer) was 12.76±0.33 µm/min, the PSall ([4]; rat, 100 µM) was 1.15 ± 0.03 µL/min and the PScell ([4]; rat, 100 µM) was 2.82 ± 0.17 µL/min. For the same compound, the PSblank (ECV304 cell layers; 100 µM) was 8.53 ± 0.36 µL/min, the PEall (ECV304 cell layers; ECV304, Piroxicam study, insert and cell layer) was 7.65±0.18 µm/min and the PSall (ECV304 cell layers; human, 100 µM) was 3.21 ± 0.07 µL/min. For the same compound, the PScell (ECV304 cell layers; human, 240 min, 100 µM) was 5.15 ± 0.19 µL/min, the PSblank (PBMEC/C1-2 cell layers; 100 µM) was 8.69 ± 0.72 µL/min and the PEall (PBMEC/C1-2 cell layers; PBMEC/C1-2, Piroxicam study, insert and cell layer) was 11.02±0.87 µm/min. For the same compound, the PEcell (PBMEC/C1-2 cell layers; serum-free medium, without celecoxib) was 24.96±2.08 µm/min, the PEcell (PBMEC/C1-2 cell layers; with Probenecid, without Meloxicam) was 30.26±5.85 µm/min and the PEcell (PBMEC/C1-2 cell layers; without CF (and without celecoxib)) was 30.27±2.61 µm/min. For the same compound, the PSall (PBMEC/C1-2 cell layers; pig, 240 min, 100 µM) was 4.63 ± 0.36 µL/min, the PScell (PBMEC/C1-2 cell layers; pig, 240 min, 100 µM) was 9.91 ± 1.60 µL/min and the Papp at 100 µM [2, 8] was 21.4 ×10⁻⁶ cm/s. For the same compound, the Papp at 100 µM ([2]; ECV304 group study, glioma conditioned medium, without celecoxib) was 30.8 ×10⁻⁶ cm/s, the Papp at 100 µM ([2]; ECV304 group study, serum-free medium, without celecoxib) was 37.8 ×10⁻⁶ cm/s and the Papp at 100 µM ([2]; ECV304 group study, without CF (and without celecoxib)) was 30.3 ×10⁻⁶ cm/s. The Papp at 100 µM ([2]; ECV304 group study, without Celecoxib) was 28.6 ×10⁻⁶ cm/s, the Papp at 100 µM [2, 9] was 45.9 ×10⁻⁶ cm/s and the Papp at 100 µM [2, 10] was 29.5 ×10⁻⁶ cm/s. For the same compound, the Papp at 100 µM [2, 11] was 26.6 ×10⁻⁶ cm/s.

`CN1C(C(=O)Nc2ccccn2)=C(O)c2sccc2S1(=O)=O` [Tenoxicam, tenoxicam] gave a Papp at 100 µM ([1]; human) of 12.3 ×10⁻⁶ cm/s, a Papp at 100 µM ([1]; pig) of 36.7 ×10⁻⁶ cm/s and a Papp at 100 µM ([1]; pig, PEcell) of 38.5 ×10⁻⁶ cm/s. It also gave a Papp at 100 µM ([1]; rat) of 21.9 ×10⁻⁶ cm/s, a PSblank ([4]; 100 µM) of 1.74 ± 0.10 µL/min and a PEall ([4]; rat, 100 µM) of 7.82±0.21 µm/min. For the same compound, the PSall ([4]; rat, 100 µM) was 0.70 ± 0.02 µL/min, the PScell ([4]; rat, 100 µM) was 1.18 ± 0.05 µL/min and the PSblank (ECV304 cell layers; 100 µM) was 7.12 ± 0.50 µL/min. The PEall (ECV304 cell layers; human, 100 µM) was 5.15±0.05 µm/min, the PSall (ECV304 cell layers; human, 100 µM) was 2.16 ± 0.02 µL/min and the PScell (ECV304 cell layers; human, 100 µM) was 3.11 ± 0.04 µL/min. It also gave a PSblank (PBMEC/C1-2 cell layers; 100 µM) of 7.47 ± 0.31 µL/min, a PEall (PBMEC/C1-2 cell layers; pig, 100 µM) of 9.84±0.16 µm/min and a PSall (PBMEC/C1-2 cell layers; pig, 100 µM) of 4.13 ± 0.07 µL/min. For the same compound, the PScell (PBMEC/C1-2 cell layers; pig, 100 µM) was 9.25 ± 0.33 µL/min.

In the case of carboxyfluorescein [CF], the “Permeability coefficients (PEcell), range of averages over the single studies” value (PBMEC/C1-2 cell layers) is reported as 16.67-19.66 µm/min.
